Test results taken from patent US20240190868A1, “SOS1 INHIBITORS” (Acerand Therapeutics (USA) Limited, priority 2022, published 2024).
Where a name gives a salt, the structure may show the parent alone.

Test system: cellular pERK in NCI-H1975 cells (EGFR/L858R-T790M)
Assay: pERK potency assay (In Cell ELISA)
Assay type: cell-based
Details: Homo sapiens, 1 h compound incubation
Text: The assay measures the ability of a compound to inhibit SOS1 function in cells. SOS1 activates RAS proteins by catalyzing the conversion of RAS GDP to RAS GTP in response to receptor tyrosine kinase activation. Activation of RAS induces a sequence of cellular signaling events that result in increased phosphorylation of ERK at Threonine 202 and Tyrosine 204 (pERK). The procedure (i.e., In Cell ELISA as described below) measures the level of cellular pERK in response to a test compound in NCI-H1975 cells (EGFR/L858R-T790M).
First, NCI-H1975 cells were grown and maintained using media and procedures recommended by the ATCC. A day before compound addition, cells were plated in poly-D-lysine coated 96-well cell culture plates (Corning® BioCoat® Cat #356640) at 25000 cells/well/100 μL and grown overnight in an incubator at 37° C. with 5% CO2. A solution of a test compound was prepared with 3-fold serial dilutions in DMSO having a top concentration of 6 mM. On the day of the assay, 50 μL of a test compound dilution in media was added to each well of cell culture plate with a final compound concentration in the range of 0.001 μM to 20 μM. After addition of the compound, cells were incubated for 1 h at 37° C. with 5% CO2, after which the culture medium was removed. Cells were fixed with 4% formaldehyde in phosphate-buffered saline (PBS) and incubated at RT for 20 min. The plate was washed three times with PBST (PBS with 0.05% Tween®-20), followed by incubation with 100 μL of pre-cooled methanol at −20° C. for 20 min. After incubation, methanol was removed. The plate was again washed with PBST. Cells were then permeabilized with 100 μL/well of 0.1% Triton X-100 in PBS at RT for 20 min and then quenched with a quenching buffer (PBST containing 1% H2O2 and 0.1% sodium azide) for 20 min at RT with gentle shaking. After washing once with PBST, a blocking buffer (250 uL/well, Pierce™ Protein-Free-PBS Blocking Buffer, Cat #37572) was then added to the cells for 1-h incubation at RT, followed by an anti-pERK antibody (cell signaling, 1:1000 dilution in 5% BSA in PBST) incubation overnight at 4° C. and a secondary antibody-HRP (Jackson immunoresearch, 1:3000 dilution in 5% BSA in PBST) incubation at RT for 1 h. PBST wash was carried out after each step three times. Before the addition of a substrate (Advansta ELISABright™), the plate was washed with PBS twice to remove detergent residues. The Cellular pERK level was determined using the microplate reader (Biotek Synergy™ H1) to detect the chemiluminescence signal. IC50 was determined by fitting a 4-parameter sigmoidal concentration-response model.

SMILES | IC50 [nM]
CC(=O)N1CCC(F)(c2cc3/c(=N/[C@H](C)c4cccc(C(F)(F)F)c4C)nc(C)n(C)c3cn2)CC1 [Compound 1, (R,Z)-1-(4-(1,2-dimethyl-4-((1-(2-methyl-3-(trifluoromethyl)phenyl)ethyl)imino)-1,4-dihydropyrido[3,4-d]pyrimidin-6-yl)-4-fluoropiperidin-1-yl)ethan-1-one] | < 100
CC(=O)N1CC=C(c2cc3/c(=N/[C@H](C)c4cccc(C(F)(F)F)c4C)nc(C)n(C)c3cn2)CC1 [Compound 2, (R,Z)-1-(4-(1,2-dimethyl-4-((1-(2-methyl-3-(trifluoromethyl)phenyl)ethyl)imino)-1,4-dihydropyrido[3,4-d]pyrimidin-6-yl)-3,6-dihydropyridin-1(2H)-yl)ethan-1-one] | < 100
CC(=O)N1CC=C(c2cc3/c(=N/[C@H](C)c4cccc(C(F)(F)F)c4C)nc(C4CC4)n(C)c3cn2)CC1 [Compound 3] | < 100
CC(=O)N1CC=C(c2cc3/c(=N/[C@H](C)c4cccc(C(F)F)c4F)nc(C)n(C)c3cn2)CC1 [Compound 4, (R,Z)-1-(4-(4-((1-(3-(difluoromethyl)-2-fluorophenyl)ethyl)imino)-1,2-dimethyl-1,4-dihydropyrido[3,4-d]pyrimidin-6-yl)-3,6-dihydropyridin-1(2H)-yl)ethan-1-one] | < 100
CC(=O)N1CCC(O)(c2cc3/c(=N/[C@H](C)c4cccc(C(F)F)c4F)nc(C)n(C)c3cn2)CC1 [Compound 5, (R,Z)-1-(4-(4-((1-(3-(difluoromethyl)-2-fluorophenyl)ethyl)imino)-1,2-dimethyl-1,4-dihydropyrido[3,4-d]pyrimidin-6-yl)-4-hydroxypiperidin-1-yl)ethan-1-one] | < 100
CC(=O)N1CCC(F)(c2cc3/c(=N/[C@H](C)c4cccc(C(F)F)c4F)nc(C)n(C)c3cn2)CC1 [Compound 6, (R,Z)-1-(4-(4-((1-(3-(difluoromethyl)-2-fluorophenyl)ethyl)imino)-1,2-dimethyl-1,4-dihydropyrido[3,4-d]pyrimidin-6-yl)-4-fluoropiperidin-1-yl)ethan-1-one] | < 100
CC(=O)N1CC=C(c2cc3/c(=N/[C@H](C)c4cccc(C#N)c4C)nc(C)n(C)c3cn2)CC1 [Compound 7] | < 100
CC(=O)N1CCC(F)(c2cc3/c(=N/[C@H](C)c4cccc(C#N)c4C)nc(C)n(C)c3cn2)CC1 [Compound 8] | < 100
CC(=O)N1CC=C(c2cc3/c(=N/[C@H](C)c4cccc(C(F)(F)F)c4C)nc(C)n(C(C)C)c3cn2)CC1 [Compound 9] | < 100
CC(=O)N1CC=C(c2cc3/c(=N/[C@H](C)c4cccc(C(F)(F)F)c4C)nc(C)n(C4CC4)c3cn2)CC1 [Compound 10] | < 100
C#C[C@@H](/N=c1\nc(C)n(C)c2cnc(C3=CCN(C(C)=O)CC3)cc12)c1cccc(C(F)(F)F)c1C [Compound 11] | < 100
CC(=O)N1CC=C(c2cnc3c(c2)/c(=N/[C@H](C)c2cccc(C(F)(F)F)c2C)nc(C)n3C)CC1 [Compound 12] | < 100
CC(=O)N1CCC(F)(c2cnc3c(c2)/c(=N/[C@H](C)c2cccc(C(F)(F)F)c2C)nc(C)n3C)CC1 [Compound 13] | < 100
CC(=O)N1CC=C(c2cc3/c(=N/[C@H](C)c4cccc(C(F)(F)F)c4C)ncn(C4CC4)c3cn2)CC1 [Compound 14] | < 100
CC(=O)N1CCC(F)(c2cc3/c(=N/[C@H](C)c4cccc(C(F)(F)F)c4C)ncn(C)c3cn2)CC1 [Compound 15, (R,Z)-1-(4-fluoro-4-(1-methyl-4-((1-(2-methyl-3-(trifluoromethyl)phenyl)-ethyl)imino)-1,4-dihydropyrido[3,4-d]pyrimidin-6-yl)piperidin-1-yl)ethan-1-one hydrochloride] | < 100
CC(=O)N1CC=C(c2cc3/c(=N/[C@H](C)c4cccc(C(F)(F)F)c4C)ncn(C)c3cn2)CC1 [Compound 16] | < 100
CC(=O)N1CCC(F)(c2ccc3c(c2)/c(=N/[C@H](C)c2cccc(C(F)(F)F)c2C)ncn3C)CC1 [Compound 17] | < 100
Cc1c([C@@H](C)/N=c2\nc(C)n(C)c3cnc(C4(C(F)F)CC4)cc23)cccc1C(F)(F)F [Compound 18, (R,Z)-6-(1-(difluoromethyl)cyclopropyl)-1,2-dimethyl-N-(1-(2-methyl-3-(trifluoromethyl)phenyl)ethyl)pyrido[3,4-d]pyrimidin-4(1H)-imine] | < 100
Cc1c(C#N)cccc1[C@@H](C)/N=c1\nc(C)n(C)c2cnc(C3(C(F)F)CC3)cc12 [Compound 19] | < 100

Now from value to compound:

IC50 [nM] | SMILES
< 100 | C[C@@H](/N=c1\ncn(C)c2cnc(C3(C(F)F)CC3)cc12)c1cccc(C(F)F)c1F [Compound 20, (R,Z)—N-(1-(3-(difluoromethyl)-2-fluorophenyl)ethyl)-6-(1-(difluoromethyl)-cyclopropyl)-1-methylpyrido[3,4-d]pyrimidin-4(1H)-imine]
< 100 | C#C[C@@H](/N=c1\ncn(C)c2cc(=O)n(C3(C(F)F)CC3)cc12)c1cccc(C(F)(F)F)c1C [Compound 21, (R,Z)-6-(1-(difluoromethyl)cyclopropyl)-1-methyl-4-((1-(2-methyl-3-(trifluoromethyl)phenyl)prop-2-yn-1-yl)imino)-4,6-dihydropyrido[4,3-d]pyrimidin-7(1H)-one]
< 100 | COc1nc(C2(O)CCN(C(C)=O)CC2)cc2/c(=N/[C@H](C)c3cccc(C(F)(F)F)c3C)ncn(C)c12 [Compound 22, (R,Z)-1-(4-hydroxy-4-(8-methoxy-1-methyl-4-((1-(2-methyl-3-(trifluoromethyl)phenyl)ethyl)imino)-1,4-dihydropyrido[3,4-d]pyrimidin-6-yl)piperidin-1-yl)ethan-1-one]
< 100 | COc1nc(C2(F)CCN(C(C)=O)CC2)cc2/c(=N/[C@H](C)c3cccc(C(F)(F)F)c3C)ncn(C)c12 [Compound 23, (R,Z)-1-(4-fluoro-4-(8-methoxy-1-methyl-4-((1-(2-methyl-3-(trifluoromethyl)phenyl)ethyl)imino)-1,4-dihydropyrido[3,4-d]pyrimidin-6-yl)piperidin-1-yl)ethan-1-one]
< 100 | COc1nc(C2(O)CC(C)(C)N(C(C)=O)C(C)(C)C2)cc2/c(=N/[C@H](C)c3cccc(C(F)(F)F)c3C)ncn(C)c12 [Compound 24, (R,Z)-1-(4-hydroxy-4-(8-methoxy-1-methyl-4-((1-(2-methyl-3-(trifluoromethyl)phenyl)ethyl)imino)-1,4-dihydropyrido[3,4-d]pyrimidin-6-yl)-2,2,6,6-tetramethylpiperidin-1-yl)ethan-1-one]
< 100 | CC(=O)N1CC=C(c2cc3/c(=N/[C@H](C)c4cccc(C(F)(F)F)c4C)nc4n(c3cn2)CCC4)CC1 [Compound 25, (R,Z)-1-(4-(5-((1-(2-methyl-3-(trifluoromethyl)phenyl)ethyl)imino)-5,7,8,9-tetrahydropyrido[4,3-e]pyrrolo[1,2-a]pyrimidin-3-yl)-3,6-dihydropyridin-1(2H)-yl)ethan-1-one]
< 100 | CC(=O)N1CCC(O)(c2cc3/c(=N/[C@H](C)c4cccc(C(F)(F)F)c4C)nc4n(c3cn2)CCC4)CC1 [Compound 26, (R,Z)-1-(4-hydroxy-4-(5-((1-(2-methyl-3-(trifluoromethyl)phenyl)ethyl)-imino)-5,7,8,9-tetrahydropyrido[4,3-e]pyrrolo[1,2-a]pyrimidin-3-yl)piperidin-1-yl)ethan-1-one]
< 100 | CC(=O)N1CCC(F)(c2cc3/c(=N/[C@H](C)c4cccc(C(F)(F)F)c4C)nc4n(c3cn2)CCC4)CC1 [Compound 27, (R,Z)-1-(4-fluoro-4-(5-((1-(2-methyl-3-(trifluoromethyl)phenyl)ethyl)-imino)-5,7,8,9-tetrahydropyrido[4,3-e]pyrrolo[1,2-a]pyrimidin-3-yl)piperidin-1-yl)ethan-1-one]
< 100 | CC(=O)N1CCC(O)(c2cc3/c(=N/[C@H](C)c4cccc(C(F)F)c4F)nc4n(c3cn2)CCC4)CC1 [Compound 28]
< 100 | CC(=O)N1CCC(F)(c2cc3/c(=N/[C@H](C)c4cccc(C(F)F)c4F)nc4n(c3cn2)CCC4)CC1 [Compound 29]
< 100 | CC(=O)N1CCC(F)(c2cc3/c(=N/[C@H](C)c4cccc(C#N)c4C)nc4n(c3cn2)CCC4)CC1 [Compound 30]
